According to patent US9169213B2, “Method of weight management” (Arena Pharmaceuticals, Inc., priority 2012, dated 2015):

Assays:
Assay type in all cases: in vivo, human
[1] = BLOOM-DM (APD356-010) Phase 3 study: Week 52 outcomes by Week 12/Week 24 responder status, patients with type 2 diabetes mellitus
Experimental: APD356-010 (BLOOM-DM) was a 52-week, placebo controlled study that evaluated the effect of two lorcaserin doses (10 mg BID and 10 mg QD) on categorical and total weight loss with concurrent behavior modification in 604 patients with type 2 diabetes mellitus managed with oral hypoglycemic agents. Randomization to the 10 mg once daily group was halted by protocol amendment in order to accelerate enrollment, resulting in final group sizes of 253 (placebo), 95 (lorcaserin QD) and 256 (lorcaserin BID).
(§1) An analysis of early weight loss was performed, at each visit after baseline through Week 24, as a predictor of ultimate weight loss success, as defined by achieving at least about 5% weight loss at 52 weeks, or at least about 10% weight loss at 52 weeks.
Table 3 and Table 4 provide the sensitivity, specificity, positive predicted value (PPV) and negative predictive value (NPV) at Weeks 12 and 24 for at least about 5% and at least about 10% weight loss at Week 52 in different studies. The rounded percent weight loss at Week 12 for at least 5% and at least about 10% weight loss at Week 52 are about 5% and about 6%, respectively. Using the about 6% weight loss at Week 12 as a criterion enhances the PPV for both about 5% and about 10% categorical weight loss at Week 52, but at the expense of excluding about 10% and about 4% more of the about 5% categorical responders at Week 52 in patients without and with diabetes, respectively, based upon NPV. The rounded optimal thresholds at Week 24 for at least about 5% and at least about 10% weight loss at Week 52 are about 6% and about 9%, respectively. Using the 9% weight loss criterion at Week 24 enhances the PPV for both about 5% and about 10% categorical weight loss at Week 52, but at the expense of excluding about 19% and about 9% more of the about 5% categorical responders at Week 52 in patients without and with diabetes, respectively, based upon NPV. As described below, if at least about a 5% weight loss criterion is applied, patients achieving this milestone will achieve an average of about 10.8% weight loss in patients without diabetes and about 9.1% weight loss in patients with diabetes at Week 52.
(§2) Tables 6 and 7, below, present weight loss, vital sign, and glycemic changes at Week 52 in pooled patients without diabetes, patients with T2DM, and pooled patients with impaired fasting glucose (IFG; ≧100 mg/dL) who were Week 12 responders.

[2] = Pooled BLOOM and BLOSSOM Phase 3 studies: Week 52 outcomes by Week 12/Week 24 responder status, patients without T2DM
Experimental: APD356-009 (“BLOOM”) was a 104-week, placebo controlled study that assessed the safety and efficacy of lorcaserin 10 mg BID in overweight and obese patients, with concurrent behavior modification. The primary efficacy objective during Year 1 was to evaluate weight loss; the primary objective during Year 2 was to assess the ability of lorcaserin to maintain body weight loss that was achieved during Year 1. At study start, each patient received randomized, double blind treatment assignments for Year 1 and for Year 2 (all patients were given a new randomization number for Year 2 to assure that patients and study personnel remained blinded to treatment assignments). All patients assigned to placebo during Year 1 (50% of randomized population) remained on placebo in Year 2. Patients assigned to lorcaserin during Year 1 were randomly assigned to stay on lorcaserin during Year 2 (⅔ of Year 1 lorcaserin patients) or to switch to placebo (⅓ of Year 1 lorcaserin patients).
APD356-011 (“BLOSSOM”) was a 52-week, placebo controlled study that evaluated the effect of two lorcaserin doses (10 mg BID and 10 mg QD) on categorical and total weight loss with concurrent behavior modification. Patients were randomized in a ratio of 2:1:2 to lorcaserin 10 mg BID, 10 mg QD, or placebo.
as §1

[3] = Pooled patients with impaired fasting glucose (IFG) who were Week 12 responders: Week 52 outcomes
Experimental: as §2

[4] = Week 12 Responder (≧5% weight loss), MITT with LOCF, 10 mg BID
[5] = Week 12 responders, patients with T2DM, 10 mg BID
[6] = all patients with T2DM, MITT-LOCF
[7] = percent change from baseline at Week 52, Week 12 responders, patients with T2DM, 10 mg BID
[8] = Week 12 responders without diabetes
[9] = Week 12 responders, patients without T2DM, 10 mg BID
[10] = all patients without T2DM, MITT-LOCF
[11] = percent change from baseline at Week 52, Week 12 responders, patients without T2DM, 10 mg BID
[12] = Week 12 responders with impaired fasting glucose (IFG) at baseline
[13] = Week 12 responders, patients with IFG, 10 mg BID
[14] = percent change from baseline at Week 52, Week 12 responders, patients with IFG, 10 mg BID

## (R)-8-chloro-1-methyl-2,3,4,5-tetrahydro-1H-3-benzazepine hydrochloride salt hemihydrate [drug]
[1]; [4]
  Week 52 Weight 5% Responder: 71%
  Week 52 Weight 10% Responder: 36%
[1]; Week 12 responders with T2DM
  Week 52 reduction in diastolic blood pressure: 1.9 mmHg
  Week 52 reduction in heart rate: 3.2 BPM
  Week 52 reduction in systolic blood pressure: 2.6 mmHg
[1]; [5]
  A1C W52 Change: −1.2%
  DBP W52 Change: −1.9 mmHg
  FPG W52 Change: -29.3 mg/dL
  Heart Rate W52 Change: −3.2 bpm
  SBP W52 Change: −2.6 mmHg
  Weight Loss ≧5% (%) at W52: 70.5%
  Weight Loss ≧10% (%) at W52: 35.9%
  Weight W52 Change: -9.3 kg
[1]; [6]
  proportion achieving ≧5% weight loss at Week 52: 38%
  weight loss at Week 52: 4.7 kg
[1]; diabetic Week 12 responders
  Week 52 reduction in A1C: 1.2%
  Week 52 reduction in FPG: 29.3 mg/dL
[1]; of patients with observed Week 12 data, type 2 diabetes, 10 mg BID
  Week 12 Responder (at least 5% weight loss at Week 12), percentage of patients: 35.9%
[1]; [7]
  HDL-C (mg/dL)* W52 Change: 8.8%
  LDL-C (mg/dL)* W52 Change: 1.4%
  Total Cholesterol (mg/dL)* W52 Change: −0.7%
  Triglycerides (mg/dL)* W52 Change: −17.8%
[2]; [4]
  Week 52 Weight 5% Responder: 86%
  Week 52 Weight 10% Responder: 50%
[2]; [8]
  Week 52 reduction in diastolic blood pressure: 2.5 mmHg
  Week 52 reduction in heart rate: 2.5 BPM
  Week 52 reduction in systolic blood pressure: 3.4 mmHg
[2]; [9]
  A1C W52 Change: −0.18%
  DBP W52 Change: −2.5 mmHg
  FPG W52 Change: -2.2 mg/dL
  Heart Rate W52 Change: −2.5 bpm
  SBP W52 Change: −3.4 mmHg
  Weight Loss ≧5% (%) at W52: 85.5%
  Weight Loss ≧10% (%) at W52: 49.8%
[2]; [10]
  proportion achieving ≧5% weight loss at Week 52: 47%
  weight loss at Week 52: 5.8 kg
[2]; of patients with observed Week 12 data, without diabetes, 10 mg BID
  Week 12 Responder (at least 5% weight loss at Week 12), percentage of patients: 49.3%
[2]; [11]
  HDL-C (mg/dL)* W52 Change: 4.6%
  LDL-C (mg/dL)* W52 Change: 1.1%
  Total Cholesterol (mg/dL)* W52 Change: −1.7%
  Triglycerides (mg/dL)* W52 Change: −14.5%
[3]; [12]
  Week 52 reduction in A1C: 0.4%
  Week 52 reduction in FPG: 7.8 mg/dL
[3]; [13]
  A1C W52 Change: −0.11%
  DBP W52 Change: −1.5 mmHg
  FPG W52 Change: -7.8 mg/dL
  Heart Rate W52 Change: −3.7 bpm
  SBP W52 Change: −1.7 mmHg
  Weight Loss ≧5% (%) at W52: 88.8%
  Weight Loss ≧10% (%) at W52: 52.4%
  Weight W52 Change: -11.2 kg
[3]; [14]
  HDL-C (mg/dL)* W52 Change: 2.1%
  LDL-C (mg/dL)* W52 Change: 2.5%
  Total Cholesterol (mg/dL)* W52 Change: −2.3%
  Triglycerides (mg/dL)* W52 Change: −15.5%
